Patent US11931364B2, “Modulation of the nitric oxide synthase pathway for oral health” (Meharry Medical College, priority 2016, dated 2024)

Tested on: nitric oxide release in rat tissue
Experiment: Nitric oxide release in rat tissue exposed to hyperglycemia in vitro, with sepiapterin supplementation
Details: hyperglycemia 55 mM, 48 hr incubation, sepiapterin 100 μM, n=4 per group, FIG. 5
Description: FIG. 5. Effect of hyperglycemia (55 mM, 48 hr incubation) and supplementation of sepiapterin (SEP, 100 μM), on nitric oxide release in rat tissue. The bars represent mean f SEM. *p<0.05 non-glycemic (N.G, Control) vs. hyperglycemic (H.G); #p<0.05 N.G vs. SEP, t-test (n=4 in each group). […] Protein expression for DHFR was reduced in diabetic female rats (FIGS. 3A-3B). […] All the above findings correlated well with the impaired saliva secretion and water intake (FIGS. 1A-1B) and e/n NOS activity (FIGS. 3A-3B) as measured by dimerization in SM gland tissue. Therefore, dietary supplementation of sepiapterin improves e/n NOSα dimerization, nNOS activity, NO synthesis and saliva secretion.

## C[C@H](O)C(=O)C1=Nc2c(nc(N)[nH]c2=O)NC1 [sepiapterin]
  NO release in the tissue exposed to hyperglycemia: improved NO release
